The values below are quoted from earlier work in patent US20130101569A1, “HAIR GROWTH STIMULANT” (priority 2011, published 2013).

Series [1] deals with healthy, older adults with mild memory complaints. The conditions noted are these: taken for six months; 485 subjects aged 55 and older.
The conditions of series [2]: not carbohydrates.

For the compound `CC/C=C\C/C=C\C/C=C\C/C=C\C/C=C\C/C=C\CCC(=O)O` [algal DHA, 4Z,7Z,10Z,13Z,16Z,19Z)-docosa-4,7,10,13,16,19-hexaenoic acid], in series [1], the heart rate result is recorded as “decreased heart rate”; the memory and learning entry was “improved memory and learning”.

As for “Chromium(III) picolinate [chromium picolinate]”, the cravings for fat entry in series [2] is listed as “reduce cravings for fat”.
